PMC8292346, “Dysfunction of the key ferroptosis-surveilling systems hypersensitizes mice to tubular necrosis during acute kidney injury” (Nature Communications, 2021)
Read-outs that look alike come from different tables or passages of the source.

Assays:
5-HT1A(h) = 5-HT1A(h) (Homo sapiens, UniProt P08908); experiment: Off-target radioligand binding screen; settings: read-out: 5-HT1A(h) (#): inhibition of radioligand binding
N neuronal α4β2 (h) = N neuronal α4β2 (h) (Homo sapiens, UniProt P17787+P43681); experiment: Off-target radioligand binding screen; settings: read-out: N neuronal α4β2 (h) (#): inhibition of radioligand binding
Chain of N neuronal α4β2 (h) (P43681 29-627 limits assumed): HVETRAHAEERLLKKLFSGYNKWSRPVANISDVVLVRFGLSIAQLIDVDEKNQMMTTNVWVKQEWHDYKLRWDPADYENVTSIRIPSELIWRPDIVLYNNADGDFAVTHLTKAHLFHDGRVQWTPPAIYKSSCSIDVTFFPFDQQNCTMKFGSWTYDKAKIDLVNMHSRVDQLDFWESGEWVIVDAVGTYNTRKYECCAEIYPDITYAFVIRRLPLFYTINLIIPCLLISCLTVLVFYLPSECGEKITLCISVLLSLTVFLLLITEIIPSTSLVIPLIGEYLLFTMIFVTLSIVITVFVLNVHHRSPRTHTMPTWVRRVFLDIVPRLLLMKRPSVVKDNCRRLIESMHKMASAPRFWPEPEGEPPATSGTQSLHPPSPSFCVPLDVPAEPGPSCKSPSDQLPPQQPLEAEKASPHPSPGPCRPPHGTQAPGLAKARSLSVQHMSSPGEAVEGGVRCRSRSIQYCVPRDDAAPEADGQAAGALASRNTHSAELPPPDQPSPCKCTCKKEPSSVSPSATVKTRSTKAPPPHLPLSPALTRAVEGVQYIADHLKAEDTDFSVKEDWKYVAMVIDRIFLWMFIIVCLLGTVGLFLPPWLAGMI
Chain of N neuronal α4β2 (h) (P17787 26-502): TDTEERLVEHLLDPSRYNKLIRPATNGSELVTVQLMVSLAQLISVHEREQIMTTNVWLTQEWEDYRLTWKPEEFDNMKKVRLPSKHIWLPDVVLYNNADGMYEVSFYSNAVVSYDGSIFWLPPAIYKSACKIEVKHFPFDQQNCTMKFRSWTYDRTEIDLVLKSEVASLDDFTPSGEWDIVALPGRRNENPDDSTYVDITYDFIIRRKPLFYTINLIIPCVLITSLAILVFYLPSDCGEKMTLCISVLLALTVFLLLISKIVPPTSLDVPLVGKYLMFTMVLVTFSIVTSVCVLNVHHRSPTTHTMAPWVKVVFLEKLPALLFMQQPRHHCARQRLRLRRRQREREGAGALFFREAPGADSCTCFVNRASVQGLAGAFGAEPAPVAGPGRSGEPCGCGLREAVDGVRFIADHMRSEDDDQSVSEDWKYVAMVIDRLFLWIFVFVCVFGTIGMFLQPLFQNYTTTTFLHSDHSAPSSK

Na+ channel (site 2) = experiment: Off-target radioligand binding screen; settings: Nec-1f 10 µM
dopamine transporter(h) = dopamine transporter(h) (Homo sapiens, UniProt Q01959); experiment: Off-target radioligand binding screen; settings: read-out: dopamine transporter(h) ($): inhibition of radioligand binding
Chain of dopamine transporter(h) (Q01959 whole entry): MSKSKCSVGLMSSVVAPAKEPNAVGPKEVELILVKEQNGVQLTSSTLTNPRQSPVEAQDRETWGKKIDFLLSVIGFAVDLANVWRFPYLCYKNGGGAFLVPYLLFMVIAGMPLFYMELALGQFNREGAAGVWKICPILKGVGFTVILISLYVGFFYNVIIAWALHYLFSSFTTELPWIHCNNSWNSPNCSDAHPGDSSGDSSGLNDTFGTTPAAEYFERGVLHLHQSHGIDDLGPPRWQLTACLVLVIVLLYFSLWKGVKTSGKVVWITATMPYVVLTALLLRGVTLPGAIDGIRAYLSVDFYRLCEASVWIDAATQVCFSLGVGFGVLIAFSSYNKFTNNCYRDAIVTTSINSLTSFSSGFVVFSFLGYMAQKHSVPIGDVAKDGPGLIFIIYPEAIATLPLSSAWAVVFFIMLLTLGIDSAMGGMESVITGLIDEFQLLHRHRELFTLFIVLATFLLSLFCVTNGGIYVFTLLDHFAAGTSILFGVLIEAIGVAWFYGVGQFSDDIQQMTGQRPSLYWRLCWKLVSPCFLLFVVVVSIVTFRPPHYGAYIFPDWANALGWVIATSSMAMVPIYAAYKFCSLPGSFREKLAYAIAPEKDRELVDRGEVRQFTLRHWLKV

μ (MOP) (h) = μ (MOP) (h) (Homo sapiens, UniProt P35372); experiment: Off-target radioligand binding screen; settings: read-out: μ (MOP) (h) (#): inhibition of radioligand binding
Chain of μ (MOP) (h) (P35372 whole entry): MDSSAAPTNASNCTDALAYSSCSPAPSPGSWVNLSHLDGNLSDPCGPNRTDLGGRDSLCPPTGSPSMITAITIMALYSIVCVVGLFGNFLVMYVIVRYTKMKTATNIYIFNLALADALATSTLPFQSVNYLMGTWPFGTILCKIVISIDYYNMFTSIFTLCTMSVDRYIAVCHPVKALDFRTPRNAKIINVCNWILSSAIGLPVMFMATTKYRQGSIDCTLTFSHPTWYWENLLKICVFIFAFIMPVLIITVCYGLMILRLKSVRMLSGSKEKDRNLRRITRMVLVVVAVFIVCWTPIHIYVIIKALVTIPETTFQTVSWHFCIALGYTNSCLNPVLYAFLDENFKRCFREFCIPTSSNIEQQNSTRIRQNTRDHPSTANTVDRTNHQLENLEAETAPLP

β1(h) = β1(h) (Homo sapiens, UniProt P08588); experiment: Off-target radioligand binding screen; settings: read-out: β1(h) (#): inhibition of radioligand binding
Chain of β1(h) (P08588 whole entry): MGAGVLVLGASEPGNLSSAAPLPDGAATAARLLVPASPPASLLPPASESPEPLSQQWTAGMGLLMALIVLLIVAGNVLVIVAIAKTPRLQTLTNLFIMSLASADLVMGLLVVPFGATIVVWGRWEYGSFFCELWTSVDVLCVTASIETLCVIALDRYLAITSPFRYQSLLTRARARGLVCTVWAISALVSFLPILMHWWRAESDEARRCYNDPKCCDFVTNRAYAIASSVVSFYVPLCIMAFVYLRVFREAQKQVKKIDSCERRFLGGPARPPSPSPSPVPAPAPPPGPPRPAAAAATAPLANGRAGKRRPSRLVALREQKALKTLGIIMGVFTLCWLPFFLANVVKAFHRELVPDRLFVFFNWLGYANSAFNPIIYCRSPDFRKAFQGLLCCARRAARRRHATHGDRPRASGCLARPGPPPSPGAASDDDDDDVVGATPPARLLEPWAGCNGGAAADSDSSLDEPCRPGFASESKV

[1] = target: Potassium Channel hERG (human) (Homo sapiens, UniProt Q12809); experiment: Off-target radioligand binding screen; settings: Nec-1f 10 µM
Chain of Potassium Channel hERG (human) (Q12809 whole entry): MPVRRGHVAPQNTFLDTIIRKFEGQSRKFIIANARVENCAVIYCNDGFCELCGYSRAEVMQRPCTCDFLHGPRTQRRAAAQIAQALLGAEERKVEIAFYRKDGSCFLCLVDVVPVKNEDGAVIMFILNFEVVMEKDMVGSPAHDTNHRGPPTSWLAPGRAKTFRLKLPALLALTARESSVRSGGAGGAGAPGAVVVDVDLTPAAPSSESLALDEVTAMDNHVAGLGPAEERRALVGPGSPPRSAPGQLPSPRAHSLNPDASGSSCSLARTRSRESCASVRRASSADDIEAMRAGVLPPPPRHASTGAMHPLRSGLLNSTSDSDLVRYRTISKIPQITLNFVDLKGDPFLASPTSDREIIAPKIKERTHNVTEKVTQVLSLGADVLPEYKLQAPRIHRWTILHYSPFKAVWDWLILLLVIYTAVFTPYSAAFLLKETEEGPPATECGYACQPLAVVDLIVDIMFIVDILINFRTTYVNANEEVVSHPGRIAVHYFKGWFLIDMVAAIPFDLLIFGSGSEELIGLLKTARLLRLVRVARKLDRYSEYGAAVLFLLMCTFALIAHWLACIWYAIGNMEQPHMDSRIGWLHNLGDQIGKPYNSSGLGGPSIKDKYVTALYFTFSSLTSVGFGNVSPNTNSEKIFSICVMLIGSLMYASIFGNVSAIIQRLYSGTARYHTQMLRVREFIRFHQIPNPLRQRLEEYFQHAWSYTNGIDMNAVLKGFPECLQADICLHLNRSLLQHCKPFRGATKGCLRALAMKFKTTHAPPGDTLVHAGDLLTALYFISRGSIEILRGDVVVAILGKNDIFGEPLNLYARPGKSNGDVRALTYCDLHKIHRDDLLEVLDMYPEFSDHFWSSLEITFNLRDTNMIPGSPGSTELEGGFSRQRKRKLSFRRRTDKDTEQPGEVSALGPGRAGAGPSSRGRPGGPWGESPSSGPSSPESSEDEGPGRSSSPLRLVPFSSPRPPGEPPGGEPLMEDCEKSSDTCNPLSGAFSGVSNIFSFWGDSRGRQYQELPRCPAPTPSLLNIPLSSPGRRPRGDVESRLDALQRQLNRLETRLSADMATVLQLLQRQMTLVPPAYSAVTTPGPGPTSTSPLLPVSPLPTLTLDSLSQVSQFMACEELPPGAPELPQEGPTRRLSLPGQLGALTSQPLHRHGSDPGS

5-HT1B (h) = 5-HT1B (h) (Homo sapiens, UniProt P28222); experiment: Off-target radioligand binding screen; settings: read-out: 5-HT1B (h) ($): inhibition of radioligand binding
Chain of 5-HT1B (h) (P28222 whole entry): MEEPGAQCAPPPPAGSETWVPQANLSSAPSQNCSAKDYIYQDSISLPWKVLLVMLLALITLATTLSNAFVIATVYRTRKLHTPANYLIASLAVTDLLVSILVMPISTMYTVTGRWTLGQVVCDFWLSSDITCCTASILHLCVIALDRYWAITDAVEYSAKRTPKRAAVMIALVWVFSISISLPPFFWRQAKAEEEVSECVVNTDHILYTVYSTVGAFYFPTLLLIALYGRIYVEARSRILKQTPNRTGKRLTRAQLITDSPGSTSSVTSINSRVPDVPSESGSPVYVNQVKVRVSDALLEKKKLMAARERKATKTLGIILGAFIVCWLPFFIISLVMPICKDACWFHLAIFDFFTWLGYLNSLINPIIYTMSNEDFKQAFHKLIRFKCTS

BZD (central) = experiment: Off-target radioligand binding screen; settings: Nec-1f 10 µM
α1A(h) = α1A(h) (Homo sapiens, UniProt P35348); experiment: Off-target radioligand binding screen; settings: read-out: α1A(h) ($): inhibition of radioligand binding
Chain of α1A(h) (P35348 whole entry): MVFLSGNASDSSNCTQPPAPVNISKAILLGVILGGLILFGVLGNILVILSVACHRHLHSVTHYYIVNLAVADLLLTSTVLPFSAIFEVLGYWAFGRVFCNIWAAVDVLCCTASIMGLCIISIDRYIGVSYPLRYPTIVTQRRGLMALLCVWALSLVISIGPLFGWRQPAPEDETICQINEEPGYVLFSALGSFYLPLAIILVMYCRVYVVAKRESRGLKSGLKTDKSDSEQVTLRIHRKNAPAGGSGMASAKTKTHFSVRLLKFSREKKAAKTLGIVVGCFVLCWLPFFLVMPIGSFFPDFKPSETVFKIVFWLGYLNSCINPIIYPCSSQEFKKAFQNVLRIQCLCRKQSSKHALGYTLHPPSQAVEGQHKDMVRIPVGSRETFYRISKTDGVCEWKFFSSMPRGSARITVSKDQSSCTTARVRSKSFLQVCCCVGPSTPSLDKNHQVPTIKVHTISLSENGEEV

[2] = Pharmacokinetic analysis of Nec-1f in mice (tissue PK); assay type: in vivo, C57BL/6 mice; settings: individual mice; for concentration at 120 min: sample collection 120 min

Chain of 5-HT1A(h) (P08908 whole entry): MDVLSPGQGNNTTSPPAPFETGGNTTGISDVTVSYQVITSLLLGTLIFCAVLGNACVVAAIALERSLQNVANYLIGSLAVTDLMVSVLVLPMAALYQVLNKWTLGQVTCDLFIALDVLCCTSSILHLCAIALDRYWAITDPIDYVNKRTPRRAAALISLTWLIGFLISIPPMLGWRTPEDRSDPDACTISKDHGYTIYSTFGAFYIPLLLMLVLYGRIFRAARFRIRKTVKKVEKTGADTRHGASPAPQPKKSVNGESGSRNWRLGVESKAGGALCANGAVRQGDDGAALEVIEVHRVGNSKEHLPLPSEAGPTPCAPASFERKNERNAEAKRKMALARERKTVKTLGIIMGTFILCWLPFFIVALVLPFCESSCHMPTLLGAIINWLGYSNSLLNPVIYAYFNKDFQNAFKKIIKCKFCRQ

CN1C(=O)C(Cc2c[nH]c3c(Cl)cccc23)NC1=S (centres unmarked) [Nec-1f]
inhibition at 10 µM (5-HT1A(h)): 9.1% | inhibition at 10 µM (N neuronal α4β2 (h)): 3.6% | Na+ channel (site 2) ($): inhibition of radioligand binding (Na+ channel (site 2)): -14.5% | inhibition at 10 µM (dopamine transporter(h)): 34.3% | inhibition at 10 µM (μ (MOP) (h)): 15.8% | inhibition at 10 µM (β1(h)): 3.7% | Potassium Channel hERG (human)- [3H] Dofetilide: inhibition of radioligand binding [1]: -2.7% | inhibition at 10 µM (5-HT1B (h)): -12.9% | BZD (central) (#): inhibition of radioligand binding (BZD (central)): -4.6% | inhibition at 10 µM (α1A(h)): 4.8% | concentration in blood ([2]; sample collection 240 min): 0 ng/mL | concentration in blood ([2]; sample collection 360 min): 0 ng/mL | concentration in blood ([2]; sample collection 480 min): 0 ng/mL | concentration in blood ([2]; sample collection 1440 min): 0 ng/mL | concentration in brain ([2]; brain, sample collection 240 min): 0 ng/mL | concentration in brain ([2]; brain, sample collection 360 min): 0 ng/mL | concentration in brain ([2]; brain, sample collection 480 min): 0 ng/mL | concentration in brain ([2]; brain, sample collection 1440 min): 0 ng/mL | concentration in heart ([2]; heart, sample collection 0 min): 0 ng/mL | concentration in heart ([2]; heart, sample collection 240 min): 0 ng/mL | concentration in heart ([2]; heart, sample collection 360 min): 0 ng/mL | concentration in heart ([2]; heart, sample collection 480 min): 0 ng/mL | concentration in heart ([2]; heart, sample collection 1440 min): 0 ng/mL | concentration in kidney ([2]; kidney, sample collection 0 min): 0 ng/mL | concentration in kidney ([2]; kidney, sample collection 240 min): 0 ng/mL | concentration in kidney ([2]; kidney, sample collection 360 min): 0 ng/mL | concentration in kidney ([2]; kidney, sample collection 480 min): 0 ng/mL | concentration in kidney ([2]; kidney, sample collection 1440 min): 0 ng/mL | concentration in liver ([2]; sample collection 0 min): 0 ng/mL | concentration in liver ([2]; sample collection 240 min): 0 ng/mL | concentration in liver ([2]; sample collection 360 min): 0 ng/mL | concentration in liver ([2]; sample collection 480 min): 0 ng/mL | concentration in liver ([2]; sample collection 1440 min): 0 ng/mL | concentration in lung ([2]; sample collection 0 min): 0 ng/mL | concentration in lung ([2]; sample collection 240 min): 0 ng/mL | concentration in lung ([2]; sample collection 360 min): 0 ng/mL | concentration in lung ([2]; sample collection 480 min): 0 ng/mL | concentration in lung ([2]; sample collection 1440 min): 0 ng/mL | concentration at 240 min ([2]; male, C57BL/6, mouse, brain, intraperitoneal, 2 mg/kg, brain, sample collection 240 min, read-out: concentration in brain): 0 ng/mL | concentration at 360 min ([2]; male, C57BL/6, mouse, brain, intraperitoneal, 2 mg/kg, brain, sample collection 360 min, read-out: concentration in brain): 0 ng/mL | concentration at 480 min ([2]; male, C57BL/6, mouse, brain, intraperitoneal, 2 mg/kg, brain, sample collection 480 min, read-out: concentration in brain): 0 ng/mL | concentration at 0 min ([2]; male, C57BL/6, mouse, brain, intraperitoneal, 2 mg/ml, brain, sample collection 0 min, read-out: concentration in brain): 0 ng/mL | concentration at 5 min ([2]; male, C57BL/6, mouse, brain, intraperitoneal, 2 mg/ml, brain, sample collection 5 min, read-out: concentration in brain): 11 ng/mL | concentration at 15 min ([2]; male, C57BL/6, mouse, brain, intraperitoneal, 2 mg/ml, brain, sample collection 15 min, read-out: concentration in brain): 23 ng/mL | concentration at 120 min ([2]; male, C57BL/6, mouse, brain, intraperitoneal, 2 mg/ml, brain, read-out: concentration in brain): 11 ng/mL | concentration at 1440 min ([2]; male, C57BL/6, mouse, brain, intraperitoneal, 2 mg/ml, brain, sample collection 1440 min, read-out: concentration in brain): 0 ng/mL | concentration at 240 min ([2]; male, C57BL/6, mouse, heart, intraperitoneal, 2 mg/kg, heart, sample collection 240 min, read-out: concentration in heart): 0 ng/mL | concentration at 360 min ([2]; male, C57BL/6, mouse, heart, intraperitoneal, 2 mg/kg, heart, sample collection 360 min, read-out: concentration in heart): 0 ng/mL | concentration at 480 min ([2]; male, C57BL/6, mouse, heart, intraperitoneal, 2 mg/kg, heart, sample collection 480 min, read-out: concentration in heart): 0 ng/mL | concentration at 1440 min ([2]; male, C57BL/6, mouse, heart, intraperitoneal, 2 mg/kg, heart, sample collection 1440 min, read-out: concentration in heart): 0 ng/mL | concentration at 0 min ([2]; male, C57BL/6, mouse, heart, intraperitoneal, heart, sample collection 0 min, read-out: concentration in heart): 0 ng/mL | concentration at 120 min ([2]; male, C57BL/6, mouse, heart, intraperitoneal, heart, read-out: concentration in heart): 0 ng/mL | concentration at 240 min ([2]; male, C57BL/6, mouse, kidney, intraperitoneal, 2 mg/kg, kidney, sample collection 240 min, read-out: concentration in kidney): 0 ng/mL
